Data reported in US20130085133A1, “ANTI-VIRAL TREATMENT AND ASSAY TO SCREENFOR ANTI-VIRAL AGENT” (Sourthern Research Institute Office of Commercialization …, priority 2010, published 2013).

Key:
[1] = tested on: RSV, Long strain; assay: virus titer Reduction (VTR) assay, progeny virus TCID50 in HEp-2 cells; assay type: cell-based, respiratory syncytial virus (RSV); conditions: human respiratory syncytial virus, 48 h; for log reduction at 3 µg/mL: 3 ug/ml compound, read-out: TCID-50 Reduction @ 3 ug/ml; for log reduction at 6 µg/mL: 6 ug/ml compound, read-out: TCID-50 Reduction 6 @ ug/ml; for log reduction at 12 µg/mL: 12 ug/ml compound, read-out: TCID-50 Reduction 12 @ ug/ml; for log reduction at 25 µg/mL: 25 ug/ml compound, read-out: TCID-50 Reduction 25 @ ug/ml; for log reduction at 5 µg/mL: 5 ug/ml compound, read-out: TCID-50 Reduction @ 5 ug/ml; for log reduction at 50 µg/mL: 50 ug/ml compound, read-out: TCID-50 Reduction @ 50 ug/ml
Description: Four concentrations of each compound were evaluated (Table 3). Briefly, the four concentrations of test compounds, HEp-2 cells (8×10^3 per well) and RSV, Long strain (MOI=0.9) were plated in 96 well microtiter plates. The plates were incubated for 48 hours. Fifteen (15) μl of 10-fold serial dilution of progeny virus containing medium from respective samples (test compound treated or untreated) was transferred to infect fresh HEp-2 cells (2×10^3 cells per well) in a 384 well format. Plates were incubated for an additional 6 days and luminescence was measured using Cell Titer-Glo reagent (Promega Inc.) to determine cell viability. […] A well showing lesser than 50% cell viability was regarded as positive for virus infection. Four replicates for each virus dilution were analyzed and the number of virus positive wells (out of 4) was plotted versus the dilution. TCID50 was calculated to be the dilution that produced two positive wells out of four using ActivityBase software (IDBS, Inc, Guilford, UK).

[2] = tested on: respiratory syncytial virus (RSV) strain Long; assay: microbe, parasite or virus in culture; conditions: human respiratory syncytial virus, HEp-2, 144 h
Description: The assay measures RSV virus-induced CPE in HEp-2 cells using cell viability as the end point.
Two vials of RSV (strain Long) containing 1×10^7 pfu/mL was thawed using an Eppendorf thermomixer for 13 min at 15° C., with shaking at 350 rpm. […] The cells were incubated for 18-20 h at 37° C., 5% CO2, 90% relative humidity. The medium was aspirated and the cells washed with 10 mL PBS without Mg^2+ or Ca^2+. Cells were harvested from flasks using 0.25% trypsin-EDTA. The cells were resuspended in a freezing medium of 95% fetal calf serum and 5% DMSO to a final cell density of 2×10^6 cells/mL. One mL aliquots of this virus infected cell suspension were dispensed to cryovials and cells were rate frozen to −80° C. Frozen infected cells were then transferred to −150° C. for long term storage.
Test compounds were evaluated by measuring their antiviral activity, cell toxicity, and selectivity. Test compounds were serially diluted in a plate to plate matrix or “stacked plate” matrix. All 320 compounds in a source plate were diluted together resulting in a 10 point dose response dilution series. It was visualized as a serial dilution series proceeding vertically through a stack of plates with the high dose plate on top and the low dose plate on the bottom.
Cells were harvested and resuspended to 80,000 cells per ml in Complete DMEM/F12.
Cells were thawed in a room temperature water bath with gentle agitation. The tube was inverted 5-10. Cells were diluted to 80,000 cells per ml by adding the contents of the vial to 24 ml of cold (4° C.) media.
Twenty five ul of uninfected HEp-2 cells were plated in the cell control wells. Frozen infected cells were combined with uninfected HEp-2 cells at a 1:100 ratio. Twenty five ul of the cell mixture was added to the virus control and compound wells. All cell plating was conducted using a Matrix WellMate and cells were maintained at room temperature with stirring during the plating process. The assay plates were incubated for six days at 37° C., 5% CO2 and 90% relative humidity.
Following the six day incubation period, the assay plates were equilibrated to room temperature for 30 min and an equal volume (30 μL) of Cell Titer-Glo reagent (Promega Inc.) was added to each well using a WellMate (Matrix, Hudson, N.H.) and plates were incubated for an additional 10 min at room temperature. At the end of the incubation, luminescence was measured using a Perkin Elmer Envision™ multi-label reader (PerkinElmer, Wellesley, Mass.) with an integration time of 0.1 s.
Data was analyzed using ActivityBase software (IDBS, Inc, Guilford, UK). thirty two control wells containing cells only and twenty four wells containing cells and virus were included on each assay plate and used to calculate Z′ value for each plate and to normalize the data on a per plate basis. […] Eight ribavirin positive control wells were included on each plate for quality control purposes, but were not used in Z′ calculations. […] In the toxicity assay, results are described as percent viability and the calculation is the same.
An EC50 (for CPE inhibition) and IC50 (for cell viability) were calculated for each substance using the 4 parameter Levenburg-Marquardt algorithm with parameter A locked at 0 and parameter B locked at 100. Standard deviation, normalized chi2 and hill slope were used to evaluate the curves. Values were not extrapolated beyond the tested range of concentrations.

[3] = cytotoxicity assay (percent viability of HEp-2 cells, Cell Titer-Glo); conditions: human, HEp-2 cells

| EC50 [2] | SMILES | log reduction at 3 µg/mL [1] | log reduction at 6 µg/mL [1] | log reduction at 12 µg/mL [1] | log reduction at 25 µg/mL [1] | CC50 at 6 days [3] | log reduction at 5 µg/mL [1] | log reduction at 50 µg/mL [1] |
| --- | --- | --- | --- | --- | --- | --- | --- | --- |
| 3.4 µg/mL | O=C1c2ccccc2C(=O)N1CCCCN(C(=O)c1ccco1)c1ccc(Cl)cc1 [AB00302018] | 1.66 | 2.64 | 2.68 | 3.07 | > 25 µg/mL | – | – |
| 5.86 µg/mL | O=C(NCCSCc1c(F)cccc1Cl)c1cccc([N+](=O)[O-])c1 [AB00306112] | 1.85 | 1.38 | 1.68 | 2.88 | > 25 µg/mL | – | – |
| 6.41 µg/mL | Cc1sc(NC(=O)c2c(F)cccc2F)nc1-c1ccccc1 [AB00309154] | 1.54 | 1.38 | 1.42 | 1.88 | > 25 µg/mL | – | – |
| 6.31 µg/mL | Cc1ccc(-c2csc(N)c2C(N)=O)cc1C [AB00310739] | 1.03 | 1.86 | 1.9 | 2.39 | > 25 µg/mL | – | – |
| 7.72 µg/mL | COC(=O)c1c(-c2ccccc2)csc1NC(=O)c1ccccc1Cl [AB00311298] | 1.53 | 1.86 | 1.9 | 1.88 | > 25 µg/mL | – | – |
| 2.32 µg/mL | O=C(c1cc(Cl)ccc1Cl)N1CCCN(C(=O)c2cc(Cl)ccc2Cl)CC1 [AB00311948] | 3.13 | – | 5.56 | 5.9 | > 25 µg/mL | 4.64 | – |
| 3.71 µg/mL | Cc1ccccc1C(=O)N1CCCN(C(=O)c2ccccc2C)CC1 [AB00312102] | 1.53 | 1.86 | 2.68 | 2.39 | > 25 µg/mL | – | – |
| 1.89 µg/mL | O=C(Cc1cccs1)Nc1nc2c(s1)CCCC2 [AB00313042] | 3.56 | 5.24 | 5.43 | 6.4 | > 25 µg/mL | – | – |
| 6.97 µg/mL | Cc1ccc(S(=O)(=O)Nc2ccc(NC(=O)c3c(F)c(F)c(F)c(F)c3F)cc2)cc1 [AB00314111] | 1 | 1.01 | 1.41 | 3.05 | > 25 µg/mL | – | – |
| 3.37 µg/mL | COC(=O)C1=C(C)N(Cc2ccccc2)C(=O)NC1c1ccc(OC)c(OC)c1 (stereo not drawn) [AB00318114] | 2.42 | – | 5.56 | 5.9 | > 25 µg/mL | 4.69 | – |
| 2.19 µg/mL | COCc1cc(C)nc(SCC(=O)Nc2ccccc2C(=O)c2ccccc2)c1C#N [AB00341850] | 1 | 2.3 | 2.41 | 2.23 | > 25 µg/mL | – | – |
| 2.18 µg/mL | COCc1cc(C)nc(SCC(=O)Nc2ccccc2N2CCOCC2)c1C#N [AB00345103] | 1 | 1.31 | 3.2 | 2.86 | > 25 µg/mL | – | – |
| 9.78 µg/mL | Cc1cc(C)cc(C(=O)Nc2cccc(NC(=O)c3ccccc3C)c2)c1 [AB00353228] | 1.55 | 2.87 | 3.42 | 3.43 | > 25 µg/mL | – | – |
| 2.77 µg/mL | Oc1ccc(Nc2nc(-c3ccc(O)cc3)cs2)cc1 [AB00355020] | 1 | 1.01 | 2.2 | 2.55 | > 25 µg/mL | – | – |
| 4.04 µg/mL | Cc1ccn2cc(-c3cccc(NS(=O)(=O)c4ccccc4)c3)nc2c1 [AB00356285] | 1.14 | 1.38 | 2.42 | 3.78 | > 25 µg/mL | – | – |
| 6.76 µg/mL | CCOC(=O)Cc1ccc(NC(=O)c2cc(SC)ccc2Cl)cc1 [AB00359299] | 1 | 1.22 | 1.99 | 2.83 | > 25 µg/mL | – | – |
| 9.42 µg/mL | O=C(Nc1cccc(NC(=O)C23CC4CC(CC(C4)C2)C3)c1)c1ccccc1F [AB00359685] | 1 | 2.13 | 4.4 | 4.94 | > 25 µg/mL | – | – |
| 0.83 µg/mL | O=C(Cc1c(F)cccc1Cl)Nc1nc2c(s1)CCCC2 [AB00361531] | 1.55 | 1.74 | 3.09 | 3.78 | > 25 µg/mL | – | – |
| 4.47 µg/mL | COc1ccc(CNCCC(c2ccc(F)cc2)c2ccco2)cc1OC (stereo not drawn) [AB00362846] | 1 | 1.92 | 2.82 | 5.48 | > 25 µg/mL | – | – |
| 5.77 µg/mL | COc1ccccc1CCNC(=O)c1cc2c(s1)CCCC2 [AB00367930] | 1.82 | 1.04 | 2.68 | 6.4 | > 25 µg/mL | – | – |
| 9.43 µg/mL | COc1c(C)cccc1C(=O)NCCOc1ccc(Cl)cc1 [AB00368252] | 1 | 1.3 | 1.72 | 4.94 | > 25 µg/mL | – | – |
| 9.56 µg/mL | O=C(Cc1ccc(Br)cc1)Nc1ccccc1C(=O)O [AB00369287] | 1 | 3.31 | 4.73 | 6.57 | > 25 µg/mL | – | – |
| 1.71 µg/mL | c1coc(-c2nn3c(Cn4cnc5ccccc54)nnc3s2)c1 [AB00369924] | 1 | 2.62 | 3.22 | 2.61 | > 25 µg/mL | – | – |
| 4.2 µg/mL | CCOC(=O)C1=C(C)NC(C)=C(C(=O)OCC)C1c1ccc(C#N)cc1 [AB00370331] | -0.15 | 1.39 | 1.7 | 2.89 | > 25 µg/mL | – | – |
| 4.37 µg/mL | CSc1ccccc1C(=O)Nc1ccc(S(=O)(=O)Nc2cccc(Cl)c2Cl)cc1 [AB00370446] | 1 | 1.32 | 3.21 | 6.57 | > 25 µg/mL | – | – |
| 6.3 µM | COCC(C)n1c(SC(C)C(=O)Nc2cc([N+](=O)[O-])ccc2Cl)nc2ccccc2c1=O (stereo not drawn) [AB00725538] | – | – | 4.98 | 5.56 | > 50 µM | 2.95 | 5.87 |
| 7.52 µM | Cc1nn(-c2ccccc2)c(C)c1C(=O)C(=O)Nc1cccc(Cl)c1 [AB00785138] | – | – | 4.24 | 4.56 | > 50 µM | 1.96 | 3.87 |
| 9.58 µM | COCCn1c(SC(C)C(=O)Nc2cccc(C(F)(F)F)c2)nc2ccccc21 (stereo not drawn) [AB00802246] | – | – | 3.98 | 4.42 | > 50 µM | 2.26 | 5.87 |
| 2.4 µM | O=c1cnn([C@@H]2O[C@H](CO)[C@@H](O)[C@H]2O)c(=O)[nH]1 [SRI-7958] | – | – | 5.98 | 5.56 | > 50 µM | 3.58 | 5.87 |
| 9.09 µM | CC(=O)Nc1nc(N)nc2ccc(CNc3ccc(C(=O)N[C@H](CCC(=O)O)C(=O)O)cc3)nc12 [SRI-10531] | – | – | 0.97 | -0.02 | > 50 µM | 0.16 | 0.28 |

| SMILES | EC50 [2] | log reduction at 3 µg/mL [1] | log reduction at 6 µg/mL [1] | log reduction at 12 µg/mL [1] | log reduction at 25 µg/mL [1] | CC50 at 6 days [3] | log reduction at 5 µg/mL [1] | log reduction at 50 µg/mL [1] |
| --- | --- | --- | --- | --- | --- | --- | --- | --- |
| CC(C)=CCC1=C(O)C(=O)c2ccccc2C1=O [AB00514453] | 7.23 µM | – | – | 3.33 | 4.47 | > 50 µM | 0.06 | 4.87 |
